Results: patent publication US20070207195A1, “Genetic Screening for Polymorphisms in Human Genes that Increase or Decrease Sensitivity to Toxic Agents” (Applied Genetics Incorporated Dermatics, priority 2004, published 2007)

System: NCI screening panel tumor cell lines
Test: Growth inhibition (GI50, sulforhodamine B) in NCI tumor cell line panel, correlated with polymorphic genotype
Type: cell-based, human
[1] = NOS3 t-786c, ratio of average GI(50) of genotypes, 48 h drug incubation

Description: The method tests a toxic agent over five 10-fold dilutions in cells for 48 hrs in a 5% CO2 atmosphere and 100% humidity. For most agents the highest concentration was 0.1 mM, but for the standard agents the highest well concentration depended on experience with the agent. DNA purified from each cell line was analyzed for SNPs at the alleles of interest. […] Cell suspensions were added to a microtiter plate and incubated for 24 h at 37° C. The drugs were added at concentrations spanning five 10-fold dilutions, and incubated for 48 h. The cells were assayed by staining the cells with sulforhodamine B, and a plate reader was used to read the optical densities. The results are expressed as a GI50 value, which is the drug concentration producing 50% growth inhibition, with correction for the cell count at time zero. […] The drug sensitivities for the polymorphs of each gene of interest were calculated in the following manner. For each drug, the average GI(50) for each polymorphic genotype was calculated, e.g., the GI(50) for the homozygous dominant, heterozygous and homozygous variant genotypes. Then the GI(50)s for all the drugs were analyzed among genotypes by nonparametric Friedman Repeated Measures ANOVA. In this test the GI(50) is only used for ranking among the genotypes for each drug, so errors due to sample size among genotypes are minimized. Statistical analysis of each pair of polymorphic genotypes was done by the Tukey-Kramer Multiple Comparison Test. Analysis of relative sensitivity of the genotypes to an individual drug was by parametric ANOVA. To determine the relative sensitivity of each pair of genotypes, the relative sensitivity to each drug was calculated by dividing the GI(50) of one genotype by the GI(50) of the other. The relative sensitivities for all the drugs were then averaged. For each pair of genotypes, we also calculated the percent of drugs in which one genotype was more sensitive than the other. […]

Nc1nc2nc[nH]c2c(=S)[nH]1 [thioguanine, Thioguanine] was tested, and the “survival of NOS3 t-786c homozygous variant genotype relative to heterozygous genotype” value [1] was 35% and the “survival of NOS3 t-786c homozygous variant genotype relative to homozygous dominant genotype” value [1] was 68%.

CC[C@]1(O)C[C@@H]2CN(CCc3c([nH]c4ccccc34)[C@@](C(=O)OC)(c3cc4c(cc3OC)N(C)[C@H]3[C@@](O)(C(=O)OC)[C@H](OC(C)=O)[C@]5(CC)C=CCN6CC[C@]43[C@@H]65)C2)C1 [vinblastine] was tested, and the “resistance of XRCC1 R399Q homozygous variant genotype versus homozygous dominant genotype” value (XRCC1 R399Q, single-drug analysis, p=0.045 Bonferroni adjusted multiple comparison test) was “significantly more resistant”.
